{
  "source": "patent US20050118664A1",
  "about": "“Fluorogenic protease substrates” (priority 2002, published 2005)",
  "key": {"[1]": {"molecular_target": "T1, PfSUB-1 (Plasmodium falciparum, UniProt O61142)", "T1 construct": "made in house; host or cells: baculovirus/insect cell system", "T1 sequence (O61142 220-690)": "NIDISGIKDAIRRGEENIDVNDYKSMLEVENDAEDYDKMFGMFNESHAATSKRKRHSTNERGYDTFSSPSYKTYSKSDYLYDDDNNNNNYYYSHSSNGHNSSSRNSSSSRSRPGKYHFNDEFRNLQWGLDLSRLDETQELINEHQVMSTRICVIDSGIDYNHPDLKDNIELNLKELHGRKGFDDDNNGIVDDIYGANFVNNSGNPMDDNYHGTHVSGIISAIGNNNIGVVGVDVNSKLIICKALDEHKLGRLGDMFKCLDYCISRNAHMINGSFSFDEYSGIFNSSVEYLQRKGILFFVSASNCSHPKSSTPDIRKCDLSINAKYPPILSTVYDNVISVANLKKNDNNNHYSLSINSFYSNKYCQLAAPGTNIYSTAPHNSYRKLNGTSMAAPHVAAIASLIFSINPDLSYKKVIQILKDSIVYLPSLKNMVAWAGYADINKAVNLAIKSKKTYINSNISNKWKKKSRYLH", "conditions": "from reference [4]; cited from earlier work"}, "[2]": {"molecular_target": "T1, PfSUB-1", "test": "Multi-well fluorescence assay of PfSUB-1 activity with or without inhibitor", "format": "biochemical", "protocol": "Purified recombinant PfSUB-1 at a range of concentrations in digestion buffer was dispensed into 50 μl aliquots in wells of white 96-well microtitre plates (FluoroNunc, NUNC). […] Plates were sealed and incubated at 37° C. for 18 h before being read on a Perkin Elmer LS-50B Luminescence spectrometer fitted with a LS50B WPR multi-plate reader accessory. Measurements were performed at an excitation wavelength of 552 nm, slit width 4 nm, and an emission wavelength of 580 nm, slit width 2.5 nm. Data collection was managed using Perkin Elmer FL WinLab software."}, "[3]": {"test_system": "pronase", "test": "Protease digestion of fluorogenic substrate with pronase, fluorescence readout", "format": "biochemical", "protocol": "(§1) All dye concentrations were determined from the absorption at 528 nm, with ε 52,000 M^−1cm^−1 [5]. Solutions of pepF1-R and its isomer derived from 5-IATR were prepared at ˜4 μM by dilution from stock DMSO solutions into digestion buffer (20 mM Tris, 50 mM NaCl, 12 mM CaCl2, 0.05% NP-40 (w/v), pH 7.6). It was necessary to include NP-40 detergent (Boehringer Mannheim) in all buffers containing the labelled peptides to avoid non-specific adsorption to glass and plasticware. Portions (4 ml) of each solution were treated with an aliquot of pronase (16 μl of 1 mg ml^−1 in the same buffer) and incubated at room temperature for 30 min. Absorbance spectra of these solutions and of the corresponding labelled peptides prior to pronase treatment were recorded (Beckman DU640 spectrophotometer).\n(§2) For protease digestion experiments, pepF1-R was diluted directly from DMSO stocks into digestion buffer (20 mM Tris-HCl pH 7.6, 50 mM NaCl, 12 mM CaCl2, ±0.05% w/v Nonidet P40). The DMSO concentration in digestion experiments was maintained below 1% (v/v).\n(§3) For these measurements, the compound was diluted 200-fold from a 230 μM stock solution in DMSO into 20 mM Tris-HCl pH 7.6. Identical spectra were obtained upon dilution into 20 mM acetate buffer, pH 5.0, or 20 mM ethanolamine pH 10.0. All buffer solutions contained 0.05% NP-40 detergent (w/v)."}, "[4]": {"molecular_target": "T1, PfSUB-1", "test": "Protease digestion of fluorogenic substrate with recombinant PfSUB-1, fluorescence readout", "format": "biochemical", "protocol": "as §1, §2\nA sample of pepF1-R digested with PfSUB-1 was subjected to RP-HPLC-fractionation (Vydac 4.6 mm×25 cm C18 reversed-phase column, eluted at 1 ml min^−1 with a 4.5-58.5% (v/v) gradient of acetonitrile in 0.1% TFA). In addition to a small peak at 38.5 min corresponding to residual pepF1-R, two large new fluorescent peaks of equal height were evident, with retention times of 29.6 and 34.0 min.\nas §3"}, "[5]": {"molecular_target": "T1, PfSUB-1", "conditions": "recombinant PfSUB-1 and authentic parasite-derived enzyme; reference [4]; cited from earlier work"}},
  "note": "Where a SMILES comes first, the peptide text is derived from it. The star is where a group is joined. X1 = CN(C)c1ccc2c(-c3cc(NC(=O)C*)ccc3C(=O)[O-])c3ccc(=[N+](C)C)cc-3oc2c1",
  "data": [
    {"compound": "O=C(O)c1cc[c]([Hg+])cc1.[OH-]", "note": "[pHMB, p-hydroxymercuribenzoate]", "values": [
      {"measurement": "inhibition of PfSUB-1 (in words)", "setting": "[1]", "value": "potent inhibitor"},
      {"measurement": "fluorescence increase of pepF1-R with inhibitor-pre-treated PfSUB-1", "setting": "[2]; PfSUB-1 pre-treated with 1 mM inhibitor", "value": "no fluorescence increase"},
      {"measurement": "effect of inhibitor on PfSUB-1-dependent fluorescence increase of pepF1-R", "setting": "[2]; multi-well assay, 0.5 μl 100 mM pHMB per 50 μl well, 30 min pre-mix, 37° C. 18 h", "value": "virtually completely ablated"}
    ]},
    {"compound": "CC[C@H](C)[C@H](NC(=O)[C@H](CC(=O)O)NC(=O)[C@@H](NC(=O)[C@H](CC(N)=O)NC(=O)[C@H](CC(=O)O)NC(=O)[C@H](C)NC(=O)[C@H](CO)NC(=O)[C@@H](NC(=O)[C@H](CSCC(=O)Nc1ccc(C(=O)[O-])c(-c2c3ccc(=[N+](C)C)cc-3oc3cc(N(C)C)ccc23)c1)NC(C)=O)C(C)C)[C@@H](C)CC)C(=O)N[C@@H](CSCC(=O)Nc1ccc(C(=O)[O-])c(-c2c3ccc(=[N+](C)C)cc-3oc3cc(N(C)C)ccc23)c1)C(=O)O", "note": "[pepF1-R] (Ac-C(X1)VSADNIDIC(X1)-OH)", "values": [
      {"measurement": "increase in fluorescence on cleavage", "setting": "[3]; addition of pronase, 20 mM Tris-HCl pH 7.6, 0.05% NP-40, ex 552 nm, em 580 nm", "value": "greater than 25 fold"},
      {"measurement": "fluorescence change on incubation with protease (in words)", "setting": "[3]; pronase, digestion buffer", "value": "dramatic, time-dependent increase in fluorescence"},
      {"measurement": "solubility", "value": "≤ 50", "unit": "µM"},
      {"measurement": "increase in fluorescence on cleavage", "setting": "[4]; addition of recombinant PfSUB-1, 20 mM Tris-HCl pH 7.6, 0.05% NP-40, ex 552 nm, em 580 nm", "value": "greater than 25 fold"},
      {"measurement": "cleavage site of substrate (RP-HPLC / mass spectrometry of products)", "setting": "[4]; digested with PfSUB-1", "value": "cleavage at the Asp-Asn bond"},
      {"measurement": "fluorescence change on incubation with protease (in words)", "setting": "[4]; purified recombinant PfSUB-1, digestion buffer", "value": "dramatic, time-dependent increase in fluorescence"}
    ]},
    {"compound": "Ac-LVSADNIDIS—OH: N-acetylated synthetic decapeptide based on the PfSUB-1 autocatalytic cleavage site (Ac-LVSADNIDIS-OH)", "values": [
      {"measurement": "cleavage by PfSUB-1 (in words)", "setting": "[5]", "value": "cleaved at the Asp-Asn bond"}
    ]}
  ]
}
